In patent US20040171795A1, “Novel peptides” (priority 2000, published 2004):

Columns and labels:
[1] = Measurement of turbidity in BSA; format: physicochemical; settings: BSA 1%, peptide 50 μM, absorbance at 600 nm
Method: The solutions were evaluated for their absorbance at a wavelength of 600 nm by using a spectrophotometer (DU640, manufactured by Beckman).

[2] = Affinity for phosphatidyl serine (EIA, inhibition of human Factor VIII binding); settings: class of IC50 for inhibiting human Factor VIII binding, 5% BSA
Method: The specific affinity of the peptide for phosphatidyl serine was evaluated by measuring activity of the peptide for inhibiting the binding of the human Factor VIII to phosphatidyl serine by using human Factor VIII which is known to bind to phosphatidyl serine but not to phosphatidyl choline in the presence of serum albumin. To be more specific, 100 μL of ethanol solution containing 10 μg/mL of phospholipids at a phosphatidyl serine (manufactured by SIGMA): phosphatidyl choline (manufactured by SIGMA) ratio of 3:7 was added to the wells of a 96 well plate (Immulon I, manufactured by Dynatech), and exsiccated by using a centrifugal evaporator (EC-95C, manufactured by Sakuma Seisakusho) at 40° C. for 40 minutes. 200 μL each of TBS (10 mM Tris-HCl (pH 7.4) containing 1% bovine serum albumin (BSA Fraction V, hereinafter referred to as BSA, manufactured by Seikagaku Corporation) and 0.9% (W/V) NaCl solution were added to each well, and the wells were blocked by allowing the plate to stand at 37° C. for 2.5 hours. After washing the plate with water, 100 μL of TBS solution supplemented with 5% BSA mixed with human Factor VIII (manufactured by American Diagnostica) at a final concentration 1 μg/mL and the peptide of predetermined dose prepared in Example 1 was added to each well, and the reaction was allowed to take place at 4° C. for 24 hours.
After the completion of the reaction, the human Factor VIII that became bound to the phosphatidyl serine was measured by enzyme immunoassay (EIA) in accordance with the general procedure described in a book (“Enzyme Immunoassay (3rd ed.)”, Eiji Ishikawa et al., Igaku-Shoin, 1987). To be more specific, the measurement was conducted by using anti-human Factor VIII mouse monoclonal antibody (ESH8, manufactured by American Diagnostica) for the primary antibody, horseradish peroxidase-labeled anti-mouse IgG antibody (P0260, manufactured by Daco) for the secondary antibody, and tetramethylbenzidine for the chromogenic substrate, and measuring the absorption at a wavelength of 450 nm by using a reference wavelength of 630 nm on a spectrophotometer (NJ-2100, manufactured by Intermed).
Intensity of the affinity of the peptide for the phosphatidyl serine was evaluated by using the value obtained by subtracting the absorption of the well having no human Factor VIII added thereto from the absorption of the well having only the human Factor VIII added thereto as the control value (100%), and designating the peptide concentration at which the value 0.5 was obtained when the value obtained by subtracting the absorption of the well having only the peptide added thereto from the absorption of the well having a mixture of the human Factor VIII and the peptide added thereto were divided by the control value as the IC50 value, and evaluating the intensity to be ++ when the IC50 value was up to 1 μM, and +when the intensity was more than 1 μM but not more than 10 μM. It is to be noted that the specific affinity was evaluated to be none when the intensity was 10 μM or more.

Vero = assay: Luciferase plasmid introduction versus phosphatidyl serine translocation; format: cell-based, monkey
Source text: A cell line established from monkey kidney (Vero cell) and a human bladder cancer cell (T24 cell) purchased from American Type Culture Collection (ATCC) and human lung cancer cell (A549 cell) purchased from Dainippon Pharmaceutical were inoculated on a 24 well culture plate (manufactured by NALGEN NUNC) at 1×10^5 cells/well. Vero cell and A549 cell were cultivated in DMEM (manufactured by Life Technologies Oriental) supplemented with 10% fetal bovine serum (hereinafter referred to as FBS, manufactured by NICHIREI), and T24 cell was cultivated in McCoy's 5a (manufactured by Life Technologies Oriental) supplemented with 10% FBS in 5% CO2 atmosphere at 37° C. for 24 hours. […] The luciferase activity expressed in the cell was then measured by the method instructed in luciferase assay system (manufactured by Promega). […] 20 μL of this cell lysate and 100 μL of the Luciferase Assay Reagent II attached to the kit was added to a fluorescence-measuring plate (Microlite™ 1 plate, manufactured by Dynatech), and after mixing, fluorescence was measured for 1 second by using a multilabel counter (ARVO™ SY1420 MULTILABEL COUNTER, manufactured by Wallac Beltold. […]

## SEQ ID NO: 1: peptide having the amino acid sequence of SEQ ID NO:1, made by solid phase synthesis (TRYLRIHPRSWVHQIALRLRYLRIHPRSWVHQIALRS; synthetic peptide using an automatic peptide synthesizer)
[1]
  OD 600: 0.03
[2]
  IC50: < 1000 nM
Vero
  Luciferase activity: 2.5 × 10^6 cps/mg protein
